Like-named read-outs stand apart in the source and are kept apart here.
Columns and labels:
USP30 = USP30 (Homo sapiens (Human), UniProt Q70CQ3); assay: USP30 biochemical IC50 assay (fluorescence polarisation)
Protocol: It is generally desirable to maximise the potency of a drug molecule against the target enzyme in relevant assays in order to lower the effective/efficacious dosage that is to be administered to patients. Compounds of the invention may be tested for USP30 affinity using the in vitro biochemical fluorescence polarization (FP) assay described herein.
Dilution plates were prepared at 21 times the final concentration (2100 µM for a final concentration of 100 µM) in 50% DMSO in a 96-well polypropylene V-bottom plate (Greiner #651201). A typical 8-point dilution series would be 100, 30, 10, 3, 1, 0.3, 0.1, 0.03 µM final. Reactions were performed in duplicate in black 384 well plates (small volume, Greiner 784076) in a final reaction volume of 21 µl. Either 1 µl of 50% DMSO or diluted compound was added to the plate. USP30 (Boston Biochem #E582) was diluted in reaction buffer (40 mM Tris, pH 7.5, 0.005% Tween 20, 0.5 mg/ml BSA, 5 mM beta-mercaptoethanol) to achieve a final assay concentration of 4 nM, and 10 µl of diluted USP30 was added to the compound. Enzyme and compound were incubated for 30 min at room temp. Reactions were initiated by the addition of 50 nM of TAMRA labelled peptide linked to ubiquitin via an iso-peptide bond as fluorescence polarisation substrate. Reactions were read immediately after addition of substrate and following a 2-hour incubation at room temperature. Readings were performed on a Pherastar Plus (BMG Labtech). λ Excitation 540 nm; λ Emission 590 nm.

Cathepsin L = Cathepsin L (Homo sapiens (Human), UniProt P07711); assay: Cathepsin L IC50; type: biochemical
Chain of Cathepsin L (P07711 114-333, species assumed): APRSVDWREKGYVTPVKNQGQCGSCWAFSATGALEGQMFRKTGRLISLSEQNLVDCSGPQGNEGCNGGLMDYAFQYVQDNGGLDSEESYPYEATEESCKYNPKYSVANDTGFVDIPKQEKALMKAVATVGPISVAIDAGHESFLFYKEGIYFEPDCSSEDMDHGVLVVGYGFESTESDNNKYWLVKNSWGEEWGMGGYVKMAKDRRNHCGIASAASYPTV

UCHL1 = UCHL1 (Homo sapiens (Human), UniProt P09936); assay: UCHL1 DUB IC50; type: biochemical; conditions: for DUB selectivity preference for USP30 v UCHL1: fold
Chain of UCHL1 (P09936 whole entry, species assumed): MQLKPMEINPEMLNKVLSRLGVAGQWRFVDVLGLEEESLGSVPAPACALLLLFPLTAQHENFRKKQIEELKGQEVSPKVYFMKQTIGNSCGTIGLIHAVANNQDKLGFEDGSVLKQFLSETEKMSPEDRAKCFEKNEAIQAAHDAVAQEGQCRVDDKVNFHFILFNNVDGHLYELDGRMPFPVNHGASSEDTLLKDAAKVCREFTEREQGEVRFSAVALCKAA

Cathepsin V = Cathepsin V (Homo sapiens (Human), UniProt O60911); assay: Cathepsin V IC50; type: biochemical
Chain of Cathepsin V (O60911 114-334, species assumed): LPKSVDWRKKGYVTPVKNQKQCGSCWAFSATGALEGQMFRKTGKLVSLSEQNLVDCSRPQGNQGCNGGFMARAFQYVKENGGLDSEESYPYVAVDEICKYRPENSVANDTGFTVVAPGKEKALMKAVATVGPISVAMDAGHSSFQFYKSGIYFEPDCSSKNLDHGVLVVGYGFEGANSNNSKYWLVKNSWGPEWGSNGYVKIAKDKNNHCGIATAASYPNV

Cathepsin K = Cathepsin K (Homo sapiens (Human), UniProt P43235); assay: Cathepsin K IC50; type: biochemical
Chain of Cathepsin K (P43235 115-329, species assumed): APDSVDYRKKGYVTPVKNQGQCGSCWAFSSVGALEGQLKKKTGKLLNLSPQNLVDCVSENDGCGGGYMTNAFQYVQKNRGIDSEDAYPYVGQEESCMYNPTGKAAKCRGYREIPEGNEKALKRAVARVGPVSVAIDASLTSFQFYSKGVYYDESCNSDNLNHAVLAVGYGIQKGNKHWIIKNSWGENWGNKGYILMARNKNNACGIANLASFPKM

[1] = system: cathepsins (B, K, L, S and V); assay: Cathepsin panel summary; type: biochemical; conditions: for Selectivity preference for USP30 v cathepsins: fold; for IC50: summary over the five cathepsins
Cathepsin B = Cathepsin B (Homo sapiens (Human), UniProt P07858); assay: Cathepsin B IC50; type: biochemical
[2] = system: USP2, USP6, USP10, USP15, USP16, USP21, USP25, USP28, USP46/UAF1; assay: DUB selectivity panel IC50; type: biochemical; conditions: for DUB selectivity preference for USP30 v 9 DUBs: fold, minimum over nine DUBs; for IC50: range over the nine DUBs
Cathepsin S = Cathepsin S (Homo sapiens (Human), UniProt P25774); assay: Cathepsin S IC50; type: biochemical
Chain of Cathepsin S (P25774 115-331, species assumed): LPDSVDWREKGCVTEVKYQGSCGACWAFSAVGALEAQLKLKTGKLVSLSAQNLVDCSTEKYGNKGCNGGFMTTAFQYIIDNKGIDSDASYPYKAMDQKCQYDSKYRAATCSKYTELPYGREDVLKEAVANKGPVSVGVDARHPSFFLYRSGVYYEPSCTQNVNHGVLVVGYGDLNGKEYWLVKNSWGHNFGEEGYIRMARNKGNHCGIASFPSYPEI

[3] = USP30 biochemical IC50 assay, read-out: IC50
[4] = reference examples, USP30 biochemical IC50 assay, read-out: USP30 IC50

Chain of USP30 (Q70CQ3 57-517): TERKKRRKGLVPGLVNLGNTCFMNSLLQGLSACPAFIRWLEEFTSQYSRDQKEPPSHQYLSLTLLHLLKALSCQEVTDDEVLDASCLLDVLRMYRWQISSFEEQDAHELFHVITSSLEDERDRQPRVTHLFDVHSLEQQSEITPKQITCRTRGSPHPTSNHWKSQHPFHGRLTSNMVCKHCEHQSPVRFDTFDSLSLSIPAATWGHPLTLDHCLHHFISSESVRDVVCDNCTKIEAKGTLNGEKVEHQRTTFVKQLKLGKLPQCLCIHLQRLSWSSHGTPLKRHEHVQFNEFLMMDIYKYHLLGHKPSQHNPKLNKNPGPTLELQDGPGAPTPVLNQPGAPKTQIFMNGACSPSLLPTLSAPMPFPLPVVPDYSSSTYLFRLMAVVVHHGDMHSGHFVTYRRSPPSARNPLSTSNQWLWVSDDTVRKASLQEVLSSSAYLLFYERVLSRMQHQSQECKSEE

Row | SMILES | IC50 (USP30; [3]) | IC50 (Cathepsin L) | IC50 (UCHL1) | IC50 (Cathepsin V) | IC50 (Cathepsin K) | Selectivity preference for USP30 v cathepsins [1] | IC50 [1] | IC50 (Cathepsin B) | DUB selectivity preference for USP30 v 9 DUBs [2] | IC50 (Cathepsin S) | DUB selectivity preference for USP30 v UCHL1 (UCHL1) | other results
1 | COc1cc(F)c(C#N)cc1-c1cnc(C(=O)N[C@@H]2C[C@@H](C)N(C#N)C2)o1 [Example 9, 5-(5-cyano-4-fluoro-2-methoxyphenyl)-N-((3R,5R)-1-cyano-5-methylpyrrolidin-3-yl)oxazole-2-carboxamide] | 0.002 µM |  |  |  |  |  |  |  |  |  |  | 
2 | COC[C@@H]1C[C@@H](NC(=O)c2nc(-c3cc(C#N)ccc3OC)co2)CN1C#N [Example 6, 4-(5-cyano-2-methoxyphenyl)-N-((3R,5S)-1-cyano-5-(methoxymethyl)pyrrolidin-3-yl)oxazole-2-carboxamide] | 0.002 µM | 39.8 µM | > 300 µM | 91.6 µM | 40.4 µM | ≥ 19900 | ≥ 39.8 µM | 52.1 µM | ≥ 700 | 64.8 µM |  | IC50 (USP30; read-out: DUB IC50 USP30): 0.002 µM; IC50 [2]: 1.4 to 258 µM
3 | COC[C@@H]1C[C@@H](NC(=O)c2nc(-c3cc(C#N)ccc3OC3CC3)co2)CN1C#N [Example 10, 4-(5-cyano-2-cyclopropoxyphenyl)-N-((3R,5S)-1-cyano-5-(methoxymethyl)pyrrolidin-3-yl)oxazole-2-carboxamide] | 0.004 µM |  |  |  |  |  |  |  |  |  |  | 
4 | COC[C@@H]1C[C@@H](NC(=O)c2ncc(-c3cc(C#N)ccc3OC(F)(F)F)o2)CN1C#N [Example 7, 5-(5-cyano-2-(trifluoromethoxy)phenyl)-N-((3R,5S)-1-cyano-5-(methoxymethyl)pyrrolidin-3-yl)oxazole-2-carboxamide] | 0.003 µM | 13.8 µM | > 300 µM | 12.1 µM | 14.9 µM | ≥ 4033 | ≥ 12.1 µM | 60.9 µM | ≥ 1333 | > 30 µM |  | IC50 (USP30; read-out: DUB IC50 USP30): 0.003 µM
5 | COc1cc(-c2cnc(NC(=O)[C@H]3CCN(C#N)C3)s2)ccc1C#N [C, reference compound] |  |  | 0.21 µM |  |  |  |  |  |  |  | 1.3 | IC50 (USP30; read-out: DUB IC50 USP30): 0.16 µM; IC50 (USP30; [4]): 0.16 µM
6 | C[C@@H]1C[C@@H](NC(=O)c2ncc(-c3cc(C#N)ccc3OC(F)(F)F)o2)CN1C#N [Example 8, 5-(5-cyano-2-(trifluoromethoxy)phenyl)-N-((3R,5R)-1-cyano-5-methylpyrrolidin-3-yl)oxazole-2-carboxamide] | 0.004 µM |  |  |  |  |  |  |  |  |  |  | 
7 | N#Cc1ccc(-c2cnc(NC(=O)[C@H]3CCN(C#N)C3)s2)cc1OC(F)(F)F [B, reference compound] |  |  | 0.52 µM |  |  |  |  |  |  |  | 3.0 | 
8 | CC1CC(C(=O)Nc2ncc(-c3ccccc3)s2)CN1C#N (centres unmarked) [Reference Example E, reference compound] |  |  |  |  |  |  |  |  |  |  | 1.5 | 
9 | COc1cccc(-c2cc(C(=O)N[C@@H]3CCN(C#N)C3)on2)c1 [Reference Example A, reference compound] |  | 2.9 µM |  |  |  | 11.6 - 129 | 0.79 to 8.8 µM |  | ≥ 2.2 |  |  | fold more potent against USP30 than against cathepsin K (Cathepsin K): 11.6 fold; IC50 (USP30; read-out: DUB IC50 USP30): 0.068 µM; IC50 (USP30; [4]): 0.068 µM; IC50 [2]: 0.15 to 22.4 µM
10 | COC[C@H]1C[C@@H](NC(=O)c2nc(-c3cc(C#N)ccc3OC3CC3)co2)CN1C#N [Example 12, 4-(5-cyano-2-cyclopropoxyphenyl)-N-((3R,5R)-1-cyano-5-(methoxymethyl)pyrrolidin-3-yl)oxazole-2-carboxamide] | 0.068 µM | > 300 µM | > 300 µM | 190 µM | > 300 µM | ≥ 2788 | ≥ 189 µM | > 300 µM | ≥ 110 | > 300 µM | greater than 4412 | DUB selectivity preference for USP30 v UCHL1 (UCHL1; listed as Ex. 12): > 4412
11 | COC[C@@H]1C[C@@H](NC(=O)c2ncc(-c3cc(C#N)ccc3OC)o2)CN1C#N [Example 5, 5-(5-cyano-2-methoxyphenyl)-N-((3R,5S)-1-cyano-5-(methoxymethyl)pyrrolidin-3-yl)oxazole-2-carboxamide] | 0.003 µM |  |  |  |  |  |  |  |  |  |  | 
12 | COC[C@H]1C[C@@H](NC(=O)c2ncc(-c3cc(C#N)ccc3OC3CC3)o2)CN1C#N [Example 11, 5-(5-cyano-2-cyclopropoxyphenyl)-N-((3R,5R)-1-cyano-5-(methoxymethyl)pyrrolidin-3-yl)oxazole-2-carboxamide] | 0.01 µM | 15.4 µM | > 300 µM | > 100 µM | 100 µM | ≥ 1540 | ≥ 15.4 µM | 83 µM | ≥ 7820 | 130 µM |  | 
13 | N#CN1CC[C@H](C(=O)Nc2ncc(-c3ccccc3)s2)C1 [D, reference compound] |  |  |  |  |  |  |  |  |  |  | 0.8 | 
14 | COc1ccc(C#N)cc1-c1cnc(C(=O)N[C@@H]2C[C@@H](C)N(C#N)C2)o1 [Example 4, 5-(5-cyano-2-methoxyphenyl)-N-((3R,5R)-1-cyano-5-methylpyrrolidin-3-yl)oxazole-2-carboxamide] |  | 294 µM | > 300 µM | > 300 µM | 165 µM |  |  | > 300 µM |  | > 300 µM |  | 

Reference: patent US20230303547A1, “N-CYANOPYRROLIDINES WITH ACTIVITY AS USP30 INHIBITORS” (MISSION THERAPEUTICS LIMITED, priority 2020, published 2023)
